# Assay results taken from patent US5750515A, “Cancer metastasis inhibitor” (Taiho Pharmaceutical Co., Ltd., priority 1995, dated 1998).
# Tests used:
# [1] = test system: KM12L4 (human colon cancer); experiment: Experimental liver metastasis (KM12L4 human colon cancer transplanted into the spleen of nude mice), increased life span; assay type: in vivo, human cells in SPF BALB/c-nu/nu male mice
# Protocol: (§1) The effect of cancer metastasis inhibition was measured using the compounds Re 80, Am 55S and Am 555S.
# (§2) KM12L4 (human colon cancer), TMK-1 (human stomach cancer) and A549 (human lung cancer) were each transplanted into the spleen of SPF BALB/c-nu/nu male mice (7 week old) in an amount of 1×10^6 cells/mouse. This test was conducted using experimental liver metastasis models.
# (§3) The test procedure followed the modified Morikawa et al method (Cancer Research, 48, 1943-1948, (1988)). That is, the in vitro cultured cells were collected using 0.25% trypsin--0.02% EDTA or 0.02% EDTA and were then washed with physiological phosphate buffer saline. After the number of the cells was counted, the cells were diluted to 10^6 cells/50 μl. Next, each mouse was incised at their left abdomen after being anesthetized with 30 mg/kg of Nembutal and then the spleen was exposed. With a 28 gauge needle attached syringe, 50 μl of the above-prepared suspension containing 1×10^6 cells/50 μl was injected into the spleen. After two minutes, two portions of blood vessels of the spleen were ligated using a Liga clip and the spleen was removed. The incision site was then closed using a kyapher suture. Each of the compounds Re 80, Am 55S and Am 555S, which is an active ingredient of the cancer metastasis inhibitor of the invention, was suspended in 5% ethanol/olive oil or in 0.5% carboxymethyl cellulose/0.5% Tween 80 (Registered Trademark, produced by Nacalai tesque Co.) and was orally administered to each mouse from next day of the transplantation. In each case, the administration was conducted for three terms, each term consisting of five consecutive administration days and two non-administration days. Evaluation was conducted using the increased life span (ILS) in comparison to the control solvent group as an evaluation index. The ILS of all-trans-retinoic acid (ATRA), known to have cancer metastasis inhibiting properties, was also measured with the same test procedure.
# [2] = test system: TMK-1 (human stomach cancer); experiment: Experimental liver metastasis (TMK-1 human stomach cancer transplanted into the spleen of nude mice), increased life span; assay type: in vivo, human cells in SPF BALB/c-nu/nu male mice
# Protocol: as §1, §2, §3
# A549 (human lung cancer) = experiment: Experimental liver metastasis (A549 human lung cancer transplanted into the spleen of nude mice), increased life span; assay type: in vivo, human cells in SPF BALB/c-nu/nu male mice
# Protocol: as §1, §2, §3
# [3] = test system: experimental liver metastasis models (KM12L4, TMK-1, A549); experiment: Effect on the experimental liver metastasis, overall (KM12L4, TMK-1 and A549 models); assay type: in vivo, human cells in SPF BALB/c-nu/nu male mice; conditions: for advantage over all-trans-retinoic acid (ATRA) in ILS / maximum ILS as compared with all-trans-retinoic acid (ATRA): comparison with ATRA, in words; for inhibition of cancer metastasis: conclusion in words; for survival time of the mouse: conclusion in words from Table 1; for maximum value of the ILS as compared with the control group: maximum over cell lines and doses of Table 1
# Protocol: as §1, §2, §3
# [4] = Toxicity test, oral, 3 weeks; assay type: in vivo, SPF ICR male mice; conditions: consecutive 3 weeks, 6 mice
# Protocol: SPF ICR male mice (5 week old) were used as divided into groups each consisting of 6 mice. To the group to be administered with the compound Re 80, the group to be administered with the compound Am 55S and the group to be administered with the compound Am 555S were orally administered 2 mg/kg of the compound Re 80 per day, 640 mg/kg of the compound Am 55S per day and 16 mg/kg of the compound Am 555S per day for consecutive 3 weeks, respectively.
# [5] = test system: genes considered to be related to cancer metastasis and infiltration; conditions: as reported in the background art; concentration dependent manner; cited from earlier work
# LC-6 (human lung cancer) = experiment: Tumor growth inhibitory effect (LC-6 subcutaneous solid tumor in nude mice); assay type: in vivo, human cells in SPF BALB/c-nu/nu male mice; conditions: tumor weight at 3 weeks vs non-treated
# Protocol: (§4) Each of 4-1ST (human stomach cancer) and LC-6 (human lung cancer) cell lines grown subcutaneously as solid tumors in mice, were cut into rectangular pieces measuring 2 mm×2 mm×2 mm and were then transplanted subcutaneously into the right backs of SPF BALB/c-nu/nu male mice (7 week old) by use of a needle for transplantation. Using the equation shown below, the estimated volume of tumor was determined. When the estimated volume of tumor became 100-250 mm^3, the mice were allocated. To the grouped mice were administered various doses of Am 555S, 5-fluorouracil (5-FU) and Cisplatin (CDDP). […] More specifically, Am 555S was orally administered for three terms, each term consisting of five consecutive administration days and two non-administration days, 5-FU was administered intravenously through the tail vein for consecutive five days, and CDDP was administered once intravenously through the tail vein. After three weeks from the administration commencement, the mice were killed and the tumor growth inhibition rates were determined from the rate of tumor weights to that of the non-treated group, so as to determine the effect of growth inhibition of the tumor.
# [6] = test system: 4-1ST (human stomach cancer); experiment: Tumor growth inhibitory effect (4-1ST subcutaneous solid tumor in nude mice); assay type: in vivo, human cells in SPF BALB/c-nu/nu male mice; conditions: tumor weight at 3 weeks vs non-treated
# Protocol: as §4
# [7] = test system: 4-1ST (human stomach cancer) and LC-6 (human lung cancer); experiment: Tumor growth inhibitory effect, overall (4-1ST and LC-6); assay type: in vivo, human cells in SPF BALB/c-nu/nu male mice
# Protocol: as §4
# [8] = 2 mg/kg oral, 3 terms of 5 days on/2 off
# [9] = 8 mg/kg oral, 3 terms of 5 days on/2 off
smiles,measurement,setting,value
"CC1(C)CCC(C)(C)c2cc(C(=O)C=C(O)c3ccc(C(=O)O)cc3)c(O)cc21 [Re 80, 4-[1-hydroxy-3-oxo-3-(5,6,7,8-tetrahydro-5,5,8,8-tetramethyl-3-hydroxy-2-naphthalenyl)-1-propenyl] benzoic acid]",Increased life span (ILS %),"[1]; po, 0.5 mg/kg, 120 h",23%
same,Increased life span (ILS %),"[1]; po, 2 mg/kg, 120 h",34%
same,Increased life span (ILS %),"[2]; po, 0.5 mg/kg, 120 h",36%
same,Increased life span (ILS %),"[2]; po, 2 mg/kg, 120 h",50%
same,Increased life span (ILS %),"A549 (human lung cancer); po, 0.5 mg/kg, 120 h",19%
same,Increased life span (ILS %),"A549 (human lung cancer); po, 2 mg/kg, 120 h",22%
same,advantage over all-trans-retinoic acid (ATRA) in ILS,[3],marked advantages
same,maximum ILS as compared with all-trans-retinoic acid (ATRA),[3],higher
same,inhibition of cancer metastasis,[3],effective to inhibit cancer metastasis
same,survival time of the mouse,[3],remarkably prolonged
same,maximum value of the ILS as compared with the control group,[3],50%
same,death,[4]; 2 mg/kg per day oral,No death occurred
same,notable side effect,[4]; 2 mg/kg per day oral,no notable side effect occurred
"CC1=C(/C=C/C(C)=C/C=C/C(C)=C/C(=O)O)C(C)(C)CCC1 [ATRA, all-trans-retinoic acid, reference compound]",Increased life span (ILS %),"[2]; TMK-1, 8 mg/kg, same test procedure, vs control solvent group",22%
same,expression of genes related to cancer metastasis and infiltration,[5],can prevent the expression of these genes to interdict metastasis and infiltration of cancer cells in concentration dependent manner
"C[Si](C)(C)c1cc(NC(=O)c2ccc(C(=O)O)cc2)cc([Si](C)(C)C)c1 [Am 55S, 4-[3,5-bis(trimethylsilyl)phenylcarbamoyl] benzoic acid]",Increased life span (ILS %),"[1]; po, 100 mg/kg, 120 h",14%
same,Increased life span (ILS %),"[1]; po, 300 mg/kg, 120 h",42%
same,Increased life span (ILS %),"[2]; po, 100 mg/kg, 120 h",39%
same,Increased life span (ILS %),"[2]; po, 300 mg/kg, 120 h",30%
same,Increased life span (ILS %),"A549 (human lung cancer); po, 100 mg/kg, 120 h",37%
same,Increased life span (ILS %),"A549 (human lung cancer); po, 300 mg/kg, 120 h",6%
same,maximum ILS as compared with all-trans-retinoic acid (ATRA),[3],higher
same,inhibition of cancer metastasis,[3],effective to inhibit cancer metastasis
same,survival time of the mouse,[3],remarkably prolonged
same,maximum value of the ILS as compared with the control group,[3],42%
same,death,[4]; 640 mg/kg per day oral,No death occurred
same,notable side effect,[4]; 640 mg/kg per day oral,no notable side effect occurred
"[NH2][Pt]([NH2])([Cl])[Cl] [CDDP, Cisplatin, reference compound]",Tumor Growth Inhibition Rate,"LC-6 (human lung cancer); 7 mg/kg i.v. (tail vein), once",52.3
"O=c1[nH]cc(F)c(=O)[nH]1 [5-FU, 5-fluorouracil, reference compound]",Tumor Growth Inhibition Rate,"[6]; 19 mg/kg i.v. (tail vein), consecutive five days",50.9
"C[Si](C)(C)c1cc(C(=O)Nc2ccc(C(=O)O)cc2)cc([Si](C)(C)C)c1 [Am 555S, 4-[3,5-bis(trimethylsilyl)phenylcarboxamide] benzoic acid]",Increased life span (ILS %),"[1]; KM12L4, 4 mg/kg oral, 3 terms of 5 days on/2 off, vs control solvent group",5%
same,Increased life span (ILS %),"[1]; KM12L4, 16 mg/kg oral, 3 terms of 5 days on/2 off, vs control solvent group",22%
same,Increased life span (ILS %),"[2]; TMK-1, 4 mg/kg oral, 3 terms of 5 days on/2 off, vs control solvent group",59%
same,Increased life span (ILS %),"[2]; TMK-1, 16 mg/kg oral, 3 terms of 5 days on/2 off, vs control solvent group",71%
same,Increased life span (ILS %),"A549 (human lung cancer); A549, 4 mg/kg oral, 3 terms of 5 days on/2 off, vs control solvent group",57%
same,Increased life span (ILS %),"A549 (human lung cancer); A549, 16 mg/kg oral, 3 terms of 5 days on/2 off, vs control solvent group",30%
same,advantage over all-trans-retinoic acid (ATRA) in ILS,[3],marked advantages
same,maximum ILS as compared with all-trans-retinoic acid (ATRA),[3],higher
same,inhibition of cancer metastasis,[3],effective to inhibit cancer metastasis
same,survival time of the mouse,[3],remarkably prolonged
same,maximum value of the ILS as compared with the control group,[3],71%
same,Tumor Growth Inhibition Rate,[6]; [8],2.7
same,Tumor Growth Inhibition Rate,"[6]; 4 mg/kg oral, 3 terms of 5 days on/2 off",-4.9
same,Tumor Growth Inhibition Rate,[6]; [9],8.7
same,Tumor Growth Inhibition Rate,LC-6 (human lung cancer); [8],2.7
same,Tumor Growth Inhibition Rate,LC-6 (human lung cancer); [9],13.7
same,tumor growth inhibition rates as compared with 5-FU and CDDP,[7]; comparison in words from Table 2,extremely low tumor growth inhibition rates
same,tumor growth inhibition activity,[7]; conclusion in words from Table 2,no tumor growth inhibition activity
same,death,[4]; 16 mg/kg per day oral,No death occurred
same,notable side effect,[4]; 16 mg/kg per day oral,no notable side effect occurred
